Measurements as given in PMC10785037, “Mechanisms for cardiac calcium pump activation by its substrate and a synthetic allosteric modulator using fluorescence lifetime imaging” (PNAS Nexus, 2023).

Assays:
Assay type in all cases: biochemical
Na+/K+-ATPase NKA-α1 = biological target: T1, Na+/K+-ATPase NKA-α1 (Sus scrofa, UniProt P05024); assay: ATPase activity assay
T1 construct: gene ATP1A1

[1] = biological target: T2, SERCA2a (cardiac sarcoplasmic reticulum Ca2+-ATPase) (Sus scrofa, UniProt P11607); assay: NADH-coupled ATPase assay, ten-point concentration-response (activation)
T2 construct: gene ATP2A2; native SERCA2a in enriched pig cardiac SR microsomes

[2] = biological target: T2, SERCA2a (cardiac sarcoplasmic reticulum Ca2+-ATPase); assay: NADH-coupled ATPase assay (activation; bell-shaped curve, aggregation suspected at high concentration)
Source text: NADH-coupled ATPase assay (activation; bell-shaped curve, aggregation suspected at high concentration) on SERCA2a (cardiac sarcoplasmic reticulum Ca2+-ATPase) | CP-154526 also activates SERCA2a in the high nM to low µM range, with an observed maximal increase in Vmax

T2 sequence (P11607 1-997 isoform P11607-2): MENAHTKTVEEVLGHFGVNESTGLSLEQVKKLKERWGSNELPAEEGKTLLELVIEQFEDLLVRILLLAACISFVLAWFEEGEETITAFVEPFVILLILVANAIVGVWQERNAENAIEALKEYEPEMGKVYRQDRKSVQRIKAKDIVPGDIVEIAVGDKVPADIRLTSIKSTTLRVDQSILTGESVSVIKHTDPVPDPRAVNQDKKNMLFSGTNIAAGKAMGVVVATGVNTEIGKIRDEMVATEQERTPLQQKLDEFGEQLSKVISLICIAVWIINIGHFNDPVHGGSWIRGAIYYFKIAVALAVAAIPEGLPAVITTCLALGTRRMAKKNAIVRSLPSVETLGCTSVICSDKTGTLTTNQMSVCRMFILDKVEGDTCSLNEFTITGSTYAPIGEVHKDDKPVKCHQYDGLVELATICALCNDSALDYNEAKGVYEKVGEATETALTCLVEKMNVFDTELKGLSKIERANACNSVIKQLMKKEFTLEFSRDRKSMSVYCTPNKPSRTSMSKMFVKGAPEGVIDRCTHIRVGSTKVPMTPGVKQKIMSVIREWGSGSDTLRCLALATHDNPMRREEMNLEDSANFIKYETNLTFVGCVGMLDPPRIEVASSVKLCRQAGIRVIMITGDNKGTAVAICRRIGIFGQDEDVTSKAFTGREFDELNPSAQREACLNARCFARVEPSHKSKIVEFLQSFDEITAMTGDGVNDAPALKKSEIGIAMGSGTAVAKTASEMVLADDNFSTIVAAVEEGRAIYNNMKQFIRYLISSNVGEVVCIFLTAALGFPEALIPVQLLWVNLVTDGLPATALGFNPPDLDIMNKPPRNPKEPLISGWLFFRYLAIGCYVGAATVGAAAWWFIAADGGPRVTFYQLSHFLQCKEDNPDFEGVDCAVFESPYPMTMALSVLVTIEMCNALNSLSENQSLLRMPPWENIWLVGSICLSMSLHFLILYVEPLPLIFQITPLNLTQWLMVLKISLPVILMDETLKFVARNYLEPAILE

C[C@]12CC/C(=N\OCCN)C[C@@H]1C(=O)C[C@@H]1[C@@H]2CC[C@]2(C)C(=O)CC[C@@H]12 [istaroxime, (3E,5S,8R,9S,10R,13S,14S)-3-(2-aminoethoxyimino)-10,13-dimethyl-1,2,4,5,7,8,9,11,12,14,15,16-dodecahydrocyclopenta[a]phenanthrene-6,17-dione]
IC50 (Na+/K+-ATPase NKA-α1): 470 nM

Cc1ccc2cccc(NC(=O)c3ccc(OC(C)C)cc3)c2n1 [CDN1163, N-(2-methylquinolin-8-yl)-4-propan-2-yloxybenzamide]
EC50 [1]: 2300 nM

CCCCN(CC)c1nc(C)nc2c1c(C)cn2-c1c(C)cc(C)cc1C [CP-154526, N-butyl-N-ethyl-2,5-dimethyl-7-(2,4,6-trimethylphenyl)pyrrolo[2,3-d]pyrimidin-4-amine]
NADH-coupled ATPase assay (activation); bell-shaped curve, aggregation suspected [2]: 28% maximal increase in Vmax at 2.5
